The text below walks through data of patent publication US9079906B2, “Triazolopyridazines as PAR1 inhibitors, production thereof, and use as medicaments” (Sanofi, priority 2008, dated 2015).

Where a name gives a salt, the structure may show the parent alone.

T1 sequence (P25116 22-425): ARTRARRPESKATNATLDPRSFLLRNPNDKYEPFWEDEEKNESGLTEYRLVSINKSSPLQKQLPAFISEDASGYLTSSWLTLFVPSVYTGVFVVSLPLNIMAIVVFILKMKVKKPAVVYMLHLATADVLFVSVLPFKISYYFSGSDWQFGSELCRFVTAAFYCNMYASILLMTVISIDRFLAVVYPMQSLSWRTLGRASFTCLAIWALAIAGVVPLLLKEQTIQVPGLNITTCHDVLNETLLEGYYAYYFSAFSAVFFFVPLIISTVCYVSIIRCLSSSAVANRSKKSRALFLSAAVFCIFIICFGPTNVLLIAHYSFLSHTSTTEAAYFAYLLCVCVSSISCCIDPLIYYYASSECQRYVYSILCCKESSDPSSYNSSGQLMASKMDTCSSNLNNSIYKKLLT

One experiment has as its target T1, PAR1 (Homo sapiens (Human), UniProt P25116). Briefly: Inhibition of PAR1-mediated platelet aggregation induced by TRAP. Type of experiment: cell-based. Particulars: TRAP-induced aggregation of washed platelets from healthy volunteer donors, 96-well format. How it is done:
PAR1 determination method: inhibition of PAR1-mediated platelet aggregation
The pharmacological testing of the substances took place in platelet aggregation induced by TRAP (thrombin receptor-activating peptide) in 96-well format. For this purpose, blood was taken from healthy volunteer donors in 20 ml syringes containing 2 ml of 3.13% sodium citrate solution. After centrifugation at 150×g for 20 minutes, the platelet-rich plasma (PRP) was separated off and mixed with 1 μl of PGE1 solution (500 μg/ml in ethanol)/ml of PRP. Incubation at RT for 5 minutes was followed by centrifugation at 120×g for 15 minutes to remove the leukocytes. The leukocyte-free PRP was transferred in 5 ml portions into 15 ml PP tubes and centrifuged at 360×g for 15 minutes in order to pellet the platelets. The plasma was then decanted off and the platelet sediment from 5 ml of PRP was resuspended in 1 ml of Tyrode's (120 mM NaCl, 2.6 mM KCl, 12 mM NaHCO3, 0.39 mM NaH2PO4×H2O, 10 mM HEPES, 0.35% BSA, 5.5 mM glucose, pH 7.4) and adjusted with Tyrode's to a platelet count of 3×10^5/microliter (μL). 13 ml of this cell suspension were then mixed with 866 μL of 10 mM CaCl2 solution, and 120 μL thereof were pipetted into each well of a 96-well plate containing 15 μL of the substance to be tested. After incubation at room temperature in the dark for 30 minutes, 15 μL of a TRAP solution (70-100 μM) were added as agonist, and kinetics were recorded at 650 nm in a SpectraMax 340 at 37° C. for 20 minutes while shaking. The areas under the curves of negative control (Tyrode's/DMSO) and positive control (15 μl of agonist/DMSO) were calculated and the difference was fixed as the 100% value. The substances to be tested were pipetted as serial dilutions in duplicate determination, the AUC was likewise determined for each substance concentration, and the % inhibition of the AUC compared with the control was calculated. On the basis of the % inhibition, the IC50 was calculated by nonlinear regression analysis according to the 4-parameter equation.
In the case of `CCOc1ccc2nn(CC(=O)c3cc(NC(C)=O)cc(S(F)(F)(F)(F)F)c3)c(=N)n2n1` [Example 1, N-[3-[2-(6-Ethoxy-3-imino-[1,2,4]triazolo[4,3-b]pyridazin-2-yl)acetyl]-5-(pentafluorosulfanyl)phenyl]acetamide as the trifluoroacetic acid salt], the half-inhibitory concentration (IC50) was found to be 650 nM.
Still for that read-out and setting: with `CC(C)(C)c1cc(C(=O)Cn2nc3ccc(Cl)nn3c2=N)cc(C(C)(C)C)c1O` [Example 2, 2-(6-chloro-3-imino-[1,2,4]triazolo[4,3-b]pyridazin-2-yl)-1-(3,5-di-tert-butyl-4-hydroxyphenyl)ethanone] the figure was 1600 nM; with `CCOc1ccc2nn(CC(=O)c3cc(N4CCOCC4)c(OC)c(C(F)(F)F)c3)c(=N)n2n1` [Example 5, 2-(6-Ethoxy-3-imino-[1,2,4]triazolo[4,3-b]pyridazin-2-yl)-1-(4-methoxy-3-morpholin-4-yl-5-trifluormethylphenyl)ethanone trifluoroacetic acid salt], 8500 nM.
The same measure, in the same setting: the value for `CCOc1ccc2nn(CC(=O)c3cc(N4CCOCC4)c(OC)c(C(C)(C)C)c3)c(=N)n2n1` [Example 7, 1-(3-tert-butyl-4-methoxy-5-morpholin-4-ylphenyl)-2-(6-ethoxy-3-imino-[1,2,4]triazolo[4,3-b]pyridazin-2-yl)ethanone trifluoroacetic acid salt] was 158 nM; that for `CCC(CC)Oc1ccc2nn(CC(=O)c3cc(NC)cc(S(F)(F)(F)(F)F)c3)c(=N)n2n1` [Example 16, 2-[6-(1-ethylpropoxy)-3-imino-[1,2,4]triazolo[4,3-b]pyridazin-2-yl]-1-[3-methylamino-5-(pentafluorosulfanyl)phenyl]ethanone trifluoroacetic acid salt] was 127 nM.
The same measure, in the same setting: the value for `CCC(CC)Oc1cc(C)c2nn(CC(=O)c3cc(OCCOC)cc(C(C)(C)C)c3)c(=N)n2n1` [Example 66, 1-[3-tert-butyl-5-(2-methoxy-ethoxy)phenyl]-2-[6-(1-ethylpropoxy)-3-imino-8-methyl-[1,2,4]triazolo[4,3-b]pyridazin-2-yl]ethanone hydrochloride] was 25 nM.
Consider `CCC(CC)Oc1cc(C)c2nn(CC(=O)c3cc(COCCCO)cc(C(C)(C)C)c3)c(=N)n2n1` [Example 77, 1-[3-tert-butyl-5-(3-hydroxy-propoxymethyl)phenyl]-2-[6-(1-ethylpropoxy)-3-imino-8-methyl-[1,2,4]triazolo[4,3-b]-pyridazin-2-yl]ethanone hydrochloride], for which half-maximal inhibition (IC50) was put at 9 nM.
The same measure, in the same setting: the value for `CCC(CC)Oc1nn2c(=N)n(CC(=O)c3cc(OC)cc(S(F)(F)(F)(F)F)c3)nc2c(C)c1C` [Example 85, 2-[6-(1-ethylpropoxy)-3-imino-7,8-dimethyl-[1,2,4]triazolo[4,3-b]pyridazin-2-yl]-1-[3-methoxy-5-(pentafluorosulfanyl)-phenyl]ethanone trifluoroacetic acid salt] was 59 nM.

The target in the next experiment is T1, PAR1. Briefly: PAR1 binding test (radioligand displacement, membrane preparation). Particulars: human PAR1 expressed in High Five insect cell membranes; radioligand 20 nM; read-out: Inhibition of binding IC50. Here is the method:
The synthesized substances were examined in a PAR1 binding test. This tested whether the substances can inhibit the binding of a radioactively labeled PAR1 agonist known from the literature at the PAR1 receptor (Ho-Sam Ahn, Mol Pharm, 51:350-356, 1997). The human PAR1 receptor was expressed transiently in High Five insect cells. From these cells, after 48 hours, a membrane preparation was produced by standard methods, aliquoted into 10 mM Tris-HCl; 0.3 mM EDTA; 1 mM EGTA; 250 mM sucrose pH 7.5, and stored at −80° C.
The substances were preincubated with the membrane at room temperature for 15 minutes, then the radioligand (ALA-(para-F-Phe)-Arg-ChA-homoArg-(3,4-^3H-Tyr)-NH2; approx. 40 Ci/mMol) was added. The end concentration of the radioligand in the test buffer (50 mM Tris-HCl; 10 mM MgCl2; 1 mM EGTA; 0.1% BSA; 2% DMSO) was 20 nM, that of the membrane 1 mg/ml. After an incubation time of 60 minutes, 25 μL of the mixture were transferred to a 96-well MultiScreenHTS FB microtiter filtration plate (from Millipore), which had been pretreated beforehand with a 0.75% aqueous polyethyleneimine solution for 5 hours at room temperature. Thereafter, with vacuum extraction, each well was washed four times with 300 μL of buffer (50 mM Tris-HCl; 10 mM MgCl2; 1 mM EGTA). The plate was then dried overnight, 100 μl of scintillator per well were added, and the plate was analyzed after 6 hours in a Wallac MicroBeta (from PerkinElmer) liquid scintillation counter. The nonspecific binding was determined in the presence of 100 μM SCH79797 (PAR-1 antagonist; from Tocris, Cat. No. 1592) and subtracted from all measurements. The 100% value used was a control without inhibitor. The % inhibition values of a substance dilution series were used to calculate the IC50 with the aid of nonlinear regression analysis according to the 4-parameter equation.
(In general: In a radioligand displacement assay an active substance lowers the binding of a labelled ligand.)
On to `Cc1cc(OCC2(C)COC2)nn2c(=N)n(CC(=O)c3cc(OCCO)cc(C(C)(C)C)c3)nc12` [Example 236, 1-[3-tert-butyl-5-(2-hydroxy-ethoxy)phenyl]-2-[3-imino-8-methyl-6-(3-methyloxetan-3-ylmethoxy)-[1,2,4]triazolo[4,3-b]-pyridazin-2-yl]ethanone hydrobromide], for which the IC50 worked out at 1400 nM.
With `CCNC(=O)c1nn2/c(=N/C)n(CC(=O)c3cc(OCCCO)c(OC)c(C(C)(C)C)c3)nc2c(C)c1C` [Example 239, N-ethyl-2-{2-[3-tert-butyl-5-(3-hydroxypropoxy)-4-methoxy-phenyl]-2-oxoethyl}-7,8-dimethyl-3-[(E)-methylimino]-2,3-dihydro-[1,2,4]triazolo[4,3-b]pyridazine-6-carboxamide hydrochloride], the concentration for half-maximal inhibition (IC50) is 113 nM.
The same measure, in the same setting: the value for `CC(C)Oc1cc(OC(C)C)c2nn(CC(=O)c3cc(OCCO)cc(C(C)(C)C)c3)c(=N)n2n1` [Example 240, 1-[3-tert-butyl-5-(2-hydroxy-ethoxy)phenyl]-2-(3-imino-6,8-diisopropoxy-[1,2,4]triazolo[4,3-b]pyridazin-2-yl)ethanone hydrochloride] was 484 nM.

Broadly, the IC50 is the concentration that inhibits the measured activity by half.
